Experimental data reported in patent US9192791B2, “Topical composition containing theanine derivatives for use on skin” (AMOREPACIFIC CORPORATION, priority 2011, dated 2015).

System: Human neonatal epidermal keratinocytes (HEK)
Test: Evaluation of calcium influx in human neonatal epidermal keratinocytes (fluo 3-AM, confocal microscope)
Format: cell-based
Details: theanine 2.5 mM, theanine derivative 0.5 mM, 5 minutes, then fluo 3-AM 15 minutes, FIG. 4
Method: Stabilized human neonatal epidermal keratinocytes (HEK, Lonza, NHEK-Neo-Neonatal Normal Human Epidermal Keratinocytes, Pooled) are dispensed in a confocal dish at a density of 2×10^4 cells per well and treated with theanine (2.5 mM) and the theanine derivative (0.5 mM) for 5 minutes and then with […] fluo 3-AM for 15 minutes. The fluo 3 decomposed in the cells and combined with calcium is observed with a confocal microscope (Nikon, Japan) to measure the difference of fluorescence and evaluate the migration of calcium in the cells.

## CCNC(=O)CC[C@H](N)C(=O)O [theanine]
  migration of calcium in the cells: definitely different behaviors from each other
